Test [1] has as its target human CB1 receptors (Homo sapiens (Human), UniProt P21554). The test can be described thus: cAMP assay, CHO cells expressing human CB1 receptors. The test is classed as cell-based. As to conditions: CHO cells expressing human CB1, cAMP; read-out: human CB1 EC50. How it is done: (§1) CHO cells expressing human CB1 or CB2 receptors are seeded 17-24 hours prior to the experiment 50.000 cells per well in a black 96 well plate with flat clear bottom (Corning Costar #3904) in DMEM (Invitrogen No. 31331), 1×HT supplement, with 10% fetal calf serum and incubated at 5% CO2 and 37° C. in a humidified incubator. The growth medium was exchanged with Krebs Ringer Bicarbonate buffer with 1 mM IBMX and incubated at 30° C. for 30 min Compounds were added to a final assay volume of 100 μl and incubated for 30 min at 30° C. Using the cAMP-Nano-TRF detection kit the assay (Roche Diagnostics) was stopped by the addition of 50 μl lysis reagent (Tris, NaCl, 1.5% Triton X100, 2.5% NP40, 10% NaN3) and 50 μl detection solutions (20 μM mAb Alexa700-cAMP 1:1, and 48 μM Ruthenium-2-AHA-cAMP) and shaken for 2 h at room temperature. The time-resolved energy transfer is measured by a TRF reader (Evotec Technologies GmbH), equipped with a ND:YAG laser as excitation source. The plate is measured twice with the excitation at 355 nm and at the emission with a delay of 100 ns and a gate of 100 ns, total exposure time 10 s at 730 (bandwidth 30 nm) or 645 nm (bandwidth 75 nm), respectively. The FRET signal is calculated as follows: FRET=T730-Alexa730-P(T645-B645) with P═Ru730-B730/Ru645-B645, where T730 is the test well measured at […], T645 is the test well measured at 645 nm, B730 and B645 are the buffer controls at 730 nm and 645 nm, respectively. cAMP content is determined from the function of a standard curve spanning from 10 μM to 0.13 nM cAMP.
(§2) EC50 values were determined using Activity Base analysis (ID Business Solution, Limited). The EC50 values for a wide range of cannabinoid agonists generated from this assay for reference compounds were in agreement with the values published in the scientific literature.
Background: Cyclic AMP is a second messenger, typically raised through Gs and lowered through Gi signalling.

For test [2], the target named is human CB2 receptors (Homo sapiens (Human), UniProt P34972). The test can be described thus: cAMP assay, CHO cells expressing human CB2 receptors. The class given is cell-based. As for the experimental part: as §1, §2
human CB2 receptors, sequence (P34972 whole entry): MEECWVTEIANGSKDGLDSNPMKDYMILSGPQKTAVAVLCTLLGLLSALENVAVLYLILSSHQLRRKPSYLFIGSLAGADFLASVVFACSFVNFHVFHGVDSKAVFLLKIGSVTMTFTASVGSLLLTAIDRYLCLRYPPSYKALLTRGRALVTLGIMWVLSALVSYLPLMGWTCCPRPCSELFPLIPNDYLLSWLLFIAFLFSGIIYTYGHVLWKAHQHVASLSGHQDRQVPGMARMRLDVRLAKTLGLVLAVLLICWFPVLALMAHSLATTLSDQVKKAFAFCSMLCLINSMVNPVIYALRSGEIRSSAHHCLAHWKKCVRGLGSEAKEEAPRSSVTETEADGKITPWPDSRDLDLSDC
Setting [3] is: CHO cells expressing human CB2, cAMP, read-out: human CB2 EC50.

By EC50 is commonly meant the midpoint of the concentration-response curve.

Like-named read-outs stand apart in the source and are kept apart here. Some results are limits rather than exact numbers.

human CB1 receptors, sequence (P21554 whole entry): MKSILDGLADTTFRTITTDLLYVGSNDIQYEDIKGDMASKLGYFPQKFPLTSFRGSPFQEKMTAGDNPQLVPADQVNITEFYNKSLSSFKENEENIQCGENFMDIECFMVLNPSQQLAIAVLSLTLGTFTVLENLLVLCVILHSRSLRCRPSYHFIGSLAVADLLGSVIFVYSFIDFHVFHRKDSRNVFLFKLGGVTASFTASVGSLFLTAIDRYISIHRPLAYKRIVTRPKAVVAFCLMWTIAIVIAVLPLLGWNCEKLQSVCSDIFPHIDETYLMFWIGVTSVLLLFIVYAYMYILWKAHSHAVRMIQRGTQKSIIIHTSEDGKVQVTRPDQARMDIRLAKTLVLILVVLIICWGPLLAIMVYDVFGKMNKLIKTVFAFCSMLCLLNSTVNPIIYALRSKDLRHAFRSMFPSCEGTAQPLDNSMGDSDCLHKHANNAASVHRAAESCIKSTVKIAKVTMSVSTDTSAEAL

With `Cc1nc(C(NC(=O)c2cccc(-c3ccc(F)c(Cl)c3)n2)C2CC2)no1` (racemic) [Example 232, 6-(3-Chloro-4-fluoro-phenyl)-pyridine-2-carboxylic acid [cyclopropyl-(5-methyl-[1,2,4]oxadiazol-3-yl)-methyl]-amide], the EC50 was determined as 1630 nM in test [1] and 15 nM in test [2] (setting [3]).
`O=C(N[C@@H](CC1CC1)C(=O)NN1CCC(O)C1)c1ccc(C2CC2)c(OCC2CC2)n1` (single isomer, unassigned; (+)) [Example 379] registered an EC50 in test [2] of 26.4 nM.
As for `O=C(N[C@@H](CC1CC1)C(=O)NN1CCC(O)C1)c1ccc(C2CC2)c(OCC2CC2)n1` (single isomer, unassigned; (-)) [Example 380], the values for the EC50 in test [1] and in test [2] (setting [3]) were greater than 10000 nM and 584 nM, respectively.
For `COC(=O)C(C)(C)NC(=O)c1cccc(-c2cccc(Cl)c2)n1` [Example 1, Methyl 2-(6-(3-chlorophenyl)picolinamido)-2-methylpropanoate], in test [2] (setting [3]), the EC50 came out at 68.5 nM.
Consider `COC(=O)C(C)(C)NC(=O)c1cccc(-c2ccccc2Cl)n1` [Example 2, Methyl 2-(6-(2-chlorophenyl)picolinamido)-2-methylpropanoate], for which, in test [2] (setting [3]), the EC50 turned out to be 57.7 nM.
Consider `Cc1nc(C(C)(C)NC(=O)c2cccc(-c3ccc(Cl)cc3)n2)no1` [Example 3, 6-(4-Chloro-phenyl)-pyridine-2-carboxylic acid [1-methyl-1-(5-methyl-[1,2,4]oxadiazol-3-yl)-ethyl]-amide], for which the values for the EC50 in test [1] and in test [2] (setting [3]) were greater than 10000 nM and 341 nM, respectively.
`COC(=O)C(C)(C)NC(=O)c1ccc(C)c(OCC(F)(F)F)n1` [Example 4, Methyl 2-methyl-2-(5-methyl-6-(2,2,2-trifluoroethoxy)picolinamido)propanoate]: the EC50 in test [2] (setting [3]) amounted to 77.2 nM.
Still for that read-out and setting: the same measure for `COC(=O)C(C)(C)NC(=O)c1ccc(C2CC2)c(Nc2ccc(Cl)cc2Cl)n1` [Example 5, Methyl 2-(5-cyclopropyl-6-(2,4-dichlorophenylamino)picolinamido)-2-methylpropanoate]: 434 nM.
On to `COC(=O)C(C)(C)NC(=O)c1ccc(C)c(Nc2ccc(Cl)cc2Cl)n1` [Example 6, Methyl 2-(6-(2,4-dichlorophenylamino)-5-methylpicolinamido)-2-methylpropanoate], for which, in test [2] (setting [3]), the concentration for a half-maximal effect (EC50) worked out at 376 nM.
Same read-out and setting: with `COC(=O)C(C)(C)NC(=O)c1cccc(C2CCCCC2)n1` [Example 7, 2-[(6-Cyclohexyl-pyridine-2-carbonyl)-amino]-2-methyl-propionic acid methyl ester] the figure was 32.1 nM.
Consider `CC(C)(NC(=O)c1cccc(-c2cccc(Cl)c2)n1)c1ncco1` [Example 8, 6-(3-Chloro-phenyl)-pyridine-2-carboxylic acid (1-methyl-1-oxazol-2-yl-ethyl)-amide], for which the EC50 is greater than 10000 nM in test [1] and 99.6 nM in test [2] (setting [3]).
The matching figures for `COC(=O)C(C)(C)NC(=O)c1ccc(C2CCOCC2)c(OCC2CC2)n1` [Example 9, 2-{[6-Cyclopropylmethoxy-5-(tetrahydro-pyran-4-yl)-pyridine-2-carbonyl]-amino}-2-methyl-propionic acid methyl ester]: greater than 10000 nM and 55.8 nM.
On to `Cc1nc(C(C)(C)NC(=O)c2ccc(C3CCOCC3)c(OCC3CC3)n2)no1` [Example 10, 6-Cyclopropylmethoxy-5-(tetrahydro-pyran-4-yl)-pyridine-2-carboxylic acid [1-methyl-1-(5-methyl-[1,2,4]oxadiazol-3-yl)-ethyl]-amide], for which the EC50 is greater than 10000 nM in test [1] and 88.3 nM in test [2] (setting [3]).
The matching figures for `O=C(NN1CCCCC1)c1cccc(-c2cccc(Cl)c2)n1` [Example 11, 6-(3-Chloro-phenyl)-pyridine-2-carboxylic acid piperidin-1-ylamide]: greater than 10000 nM and 63.6 nM.
Turning to `CC(C)(NC(=O)c1cccc(-c2cccc(Cl)c2)n1)c1nccs1` [Example 12, 6-(3-Chloro-phenyl)-pyridine-2-carboxylic acid (1-methyl-1-thiazol-2-yl-ethyl)-amide], the EC50 was greater than 10000 nM in test [1] and 105 nM in test [2] (setting [3]).
As for `COC(=O)C(C)(C)NC(=O)c1ccc(-c2cc[nH]n2)c(OCC2CC2)n1` [Example 13, 2-{[6-Cyclopropylmethoxy-5-(1H-pyrazol-3-yl)-pyridine-2-carbonyl]-amino}-2-methyl-propionic acid methyl ester], the values for the EC50 in test [1] and in test [2] (setting [3]) were greater than 10000 nM and 426 nM, respectively.
Turning to `CC(C)C[C@@H](CO)NC(=O)c1ccc(N2CCCC2)c(OCC2CC2)n1` [Example 14, 6-Cyclopropylmethoxy-5-pyrrolidin-1-yl-pyridine-2-carboxylic acid ((S)-1-hydroxymethyl-3-methyl-butyl)-amide], the EC50 was greater than 10000 nM in test [1] and 3 nM in test [2] (setting [3]).
In the case of `O=C(c1ccc(N2CCCC2)c(OCC2CC2)n1)N1CCS(=O)(=O)CC1` [Example 15], the figures for the EC50 in test [1] and in test [2] (setting [3]) were greater than 10000 nM and 95.9 nM, respectively.
For `O=C(c1ccc(N2CCCC2)c(OCC2CC2)n1)N1CCSCC1` [Example 16, (6-Cyclopropylmethoxy-5-pyrrolidin-1-yl-pyridin-2-yl)-thiomorpholin-4-yl-methanone] the same measures were greater than 10000 nM and 16.6 nM.
In the case of `CC(C)(NC(=O)c1cccc(-c2cccc(Cl)c2)n1)c1nnco1` [Example 17, 6-(3-Chloro-phenyl)-pyridine-2-carboxylic acid (1-methyl-1-[1,3,4]oxadiazol-2-yl-ethyl)-amide], the EC50 was greater than 10000 nM in test [1] and 566 nM in test [2] (setting [3]).
For the compound `O=C(NC1CCCCC1)c1cccc(-c2cccc(Cl)c2)n1` [Example 18, 6-(3-Chloro-phenyl)-pyridine-2-carboxylic acid cyclohexylamide], the figures for the EC50 in test [1] and in test [2] (setting [3]) were greater than 10000 nM and 97 nM, respectively.
For `O=C(Nc1ccccc1)c1cccc(-c2cccc(Cl)c2)n1` [Example 19, 6-(3-Chloro-phenyl)-pyridine-2-carboxylic acid phenylamide] the same measures were greater than 10000 nM and 415 nM.
Take `O=C(Nc1ccccn1)c1cccc(-c2cccc(Cl)c2)n1` [Example 20, 6-(3-Chloro-phenyl)-pyridine-2-carboxylic acid pyridin-2-ylamide]: the results for the EC50 in test [1] and in test [2] (setting [3]) were greater than 10000 nM and 262 nM, respectively.
The matching figures for `O=C(NC1CCOCC1)c1cccc(-c2cccc(Cl)c2)n1` [Example 21, 6-(3-Chloro-phenyl)-pyridine-2-carboxylic acid (tetrahydro-pyran-4-yl)-amide]: greater than 10000 nM and 220 nM.
Turning to `Cc1nsc(C(C)(C)NC(=O)c2cccc(-c3cccc(Cl)c3)n2)n1` [Example 22, 6-(3-Chloro-phenyl)-pyridine-2-carboxylic acid [1-methyl-1-(3-methyl-[1,2,4]thiadiazol-5-yl)-ethyl]-amide], the figures for the EC50 in test [1] and in test [2] (setting [3]) were greater than 10000 nM and 635 nM, respectively.
For `CCC(CC)(NC(=O)c1cccc(-c2cccc(Cl)c2)n1)C(=O)N(C)C` [Example 23, 6-(3-Chloro-phenyl)-pyridine-2-carboxylic acid (1-dimethylcarbamoyl-1-ethyl-propyl)-amide] the same measures were greater than 10000 nM and 48.2 nM.
For `O=C(NN1CCCCC1)c1cccc(C2CCCCC2)n1` [Example 24, 6-Cyclohexyl-pyridine-2-carboxylic acid piperidin-1-ylamide] the same measures were greater than 10000 nM and 15.6 nM.
For `Cc1ccc(C(=O)N2CCCCC2)nc1S(=O)(=O)N1CCCCC1` [Example 25, [5-Methyl-6-(piperidine-1-sulfonyl)-pyridin-2-yl]-piperidin-1-yl-methanone] the same measures were greater than 10000 nM and 291 nM.
Regarding `CC1CC(NC(=O)c2cccc(-c3cccc(Cl)c3)n2)CCO1` (stereo not shown) [Example 26, 6-(3-Chloro-phenyl)-pyridine-2-carboxylic acid (2-methyl-tetrahydro-pyran-4-yl)-amide], the values for the EC50 in test [1] and in test [2] (setting [3]) were greater than 10000 nM and 691 nM, respectively.
For `COC(=O)C(C)(C)NC(=O)c1ccc(N2CCCC2)c(OCC2CC2)n1` [Example 27, 2-[(6-Cyclopropylmethoxy-5-pyrrolidin-1-yl-pyridine-2-carbonyl)-amino]-2-methyl-propionic acid methyl ester] the same measures were greater than 10000 nM and 4.6 nM.
Regarding `Cc1cc(C(C)(C)NC(=O)c2cccc(-c3cccc(Cl)c3)n2)on1` [Example 28, 6-(3-Chloro-phenyl)-pyridine-2-carboxylic acid [1-methyl-1-(3-methyl-isoxazol-5-yl)-ethyl]-amide], the results for the EC50 in test [1] and in test [2] (setting [3]) were greater than 10000 nM and 564 nM, respectively.

(Values after patent US9290451B2 (Hoffmann-La Roche Inc., priority 2011, dated 2016).)
